# Key:
# VEGF gene = assay: Human dermal papilla cell VEGF gene expression (real-time PCR); type: cell-based; conditions: 72 hours; for amount of expression of the VEGF gene as compared with the control group: human dermal papilla cells
# Experimental: Human dermal papilla cells (Catalog No. CA602t05a; derived from person; Toyobo Co., Ltd. (Japan)) were purchased, testing and evaluation being carried out with maintenance and culture of cells being performed as described in the protocol.
# As drugs for testing, drug solutions of the following respective concentrations (final concentrations) were prepared and used. • Comparative Example 5: 30 μM minoxidil • Comparative Example 6: 100 μM adenosine • Working Example 3: 0.3125 μM phytosphingosine • Working Example 4: 1.25 μM phytosphingosine
# A 24-well plate was seeded with human dermal papilla cells so as to obtain 6×10^3 thereof per well. Following culture for 1 day within a CO2 incubator (5% CO2; 37° C.), the culture medium was replaced with culture medium which contained the respective drugs for testing. The cell plate was thereafter returned to the CO2 incubator, and this was further cultured for 72 hours. Following culture, total RNA was extracted from the respective wells and was recovered, and this was reverse-transcribed into cDNA. The cDNA that was prepared was used to measure VEGF gene expression in accordance with the real-time PCR method. The GAPDH gene was used as an internal standard, the amount of VEGF gene expression being calculated relative to the negative control group. […]
# 300 μL of lysis buffer RL was added thereto per well, and the cells were lysed by pipetting. […] Concentration of the recovered RNA was measured using a NanoDrop Lite (Catalog No. ND-LITE; Thermo Fisher Scientific K.K.), and this was stored at −80° C. until the following cDNA creation procedure.
# A FastGene scriptase II cDNA synthesis 5X Ready Mix (Catalog No. NE-LS64; Nippon Genetics Co., Ltd. (Japan)) was used to synthesize cDNA. Dilution with RNase Free Water was carried out so as to cause concentration of total RNA produced in a new tube to be 20 ng/mL, 4 μL of FastGene scriptase II cDNA synthesis 5X Ready Mix was added to 16 μL of this sample solution, and this was agitated by vortexing. […]
# [1] = system: hair groups derived from C57BL/6N dorsal body hair skin transplanted in Balb/c nu/nu mice; assay: Evaluation of hair-diameter-increasing activity (hair shafts grown after third cycle of Exemplary Test 1); type: in vivo
# Experimental: Dorsal body hair skin was collected from C57BL/6N mice (SLC) of age 7 to 8 weeks in accordance with a procedure similar to that at Exemplary Test 1, above, the drug being applied after the hair groups derived from the dorsal body hair skin that had been fabricated were transplanted in Balb/c nu/nu mice (SLC) of age 4 to 6 weeks. Testing and breeding of animals complied with pertinent laws, regulations, ordinances, and guidelines, and was performed with the approval of the Experimental Ethics Review Board of the Institute of Physical and Chemical Research. The following three solutions were used during testing. • 60% aqueous ethanol solution • 5% minoxidil solution • 1% phytosphingosine solution Measurement of increase in hair diameter was carried out using hair shafts which had grown following completion of the third cycle at Exemplary Test 1. Of the hair shafts that were collected, two zigzag hairs were used. Three locations were selected in regions where diameter was large in the central portions thereof using a square 100 μm on a side. Measurement of selected regions was carried out at five locations. Hairs as they existed following application of the drug were used for measurement of hair shaft diameter.
structure (smiles),measurement,setting,value
CCCCCCCCCCCCCC[C@@H](O)[C@@H](O)[C@@H](N)CO [phytosphingosine],amount of expression of the VEGF gene as compared with the control group,VEGF gene; 0.3125 μM phytosphingosine (Working Example 3),increase
same,amount of expression of the VEGF gene as compared with the control group,VEGF gene; 1.25 μM phytosphingosine (Working Example 4),increase
same,amount of expression of the VEGF gene compared with 30 μM minoxidil (Comparative Example 5) or 100 μM adenosine (Comparative Example 6),VEGF gene; increased amount of phytosphingosine added,greater
same,Hair shaft diameter,"[1]; 1% phytosphingosine solution applied, hair shafts after third cycle",20.15 μm
same,hair shaft diameter as percent of control,[1]; 1% phytosphingosine solution vs 60% aqueous ethanol solution,127%

# — patent US20240099951A1, “HAIR GROWTH STIMULANT” (ADJUVANT HOLDINGS CO., LTD., priority 2020, published 2024)
